Here are results for eleven compounds from ChEMBL document CHEMBL5352476, “A comprehensive overview of Artemisinin and its derivatives as anticancer agents” (Eur J Med Chem, 2023).

Data set [1] has as its system HepG2. The data set is described as follows: Antiproliferative activity against human HepG2 cells assessed as inhibition of cell growth by MTT assay. It is filed as functional, cell-based. On the technique in general: Tetrazolium assays rely on reduction of a dye to a coloured formazan, in cell work by metabolically active cells.
The test system of the next data set is NCI-H460. The data set is described as follows: Antiproliferative activity against human NCI-H460 cells assessed as inhibition of cell growth incubated for 72 hrs by MTT assay. It is filed as functional, cell-based. The note with it: NCI-H460, 72 h.
Data set [2] in a line: Cytotoxicity against human WI-38 cells assessed as inhibition of cell growth incubated for 72 hrs by MTT assay. It is filed as toxicity, cell-based.
Another data set deals with U-87 MG. The data set is described as follows: Antiproliferative activity against human U-87 MG cells assessed as inhibition of cell growth incubated for 72 hrs by MTT assay. It is filed as functional, cell-based, U-87MG ATCC.
Another data set relates to HL-60. The data set is described as follows: Antiproliferative activity against human HL-60 cells assessed as inhibition of cell growth incubated for 72 hrs by MTT assay. It is filed as functional, cell-based. The note with it: HL-60, 72 h.
The next data set deals with HT-29. The data set is described as follows: Antiproliferative activity against human HT-29 cells assessed as inhibition of cell growth incubated for 72 hrs by MTT assay. It is filed as functional, cell-based. The note with it: HT-29, 72 h.
A further data set deals with A549. The data set is described as follows: Antiproliferative activity against human A549 cells assessed as inhibition of cell growth incubated for 72 hrs by MTT assay. It is filed as functional, cell-based. The note with it: A549, 72 h.
A further data set concerns MDA-MB-231. The data set is described as follows: Antiproliferative activity against human MDA-MB-231 cells assessed as inhibition of cell growth incubated for 72 hrs by MTT assay. In kind it is functional, cell-based. The note with it: MDA-MB-231, 72 h.
A short description of data set [3]: Cytotoxicity against human CCD 19Lu cells assessed as inhibition of cell growth. In kind it is toxicity, cell-based.
The test system of a further data set is RPMI-7951. The experiment in a line: Antiproliferative activity against human RPMI-7951 cells assessed as inhibition of cell growth incubated for 24 hrs by MTT assay. The note with it: RPMI-7951, 24 h. In kind it is functional, cell-based.
The test system of the next data set is SK-OV-3. The data set is described as follows: Antiproliferative activity against human SK-OV-3 cells assessed as inhibition of cell growth incubated for 48 hrs by MTT assay. It is filed as functional, cell-based. The note with it: SK-OV-3, 48 h.
Data set [4] concerns HepG2. The data set is described as follows: Potency index, ratio of vincristine IC50 to test compound IC50 for antiproliferative activity against human HepG2 cells assessed as inhibition of cell growth incubated for 48 hrs by MTT assay. It is filed as functional.
The test system of a further data set is Calu-1. The data set is described as follows: Antiproliferative activity against human Calu-1 cells assessed as inhibition of cell growth incubated for 48 hrs by MTT assay. In kind it is functional, cell-based. The note with it: Calu-1, 48 h.
A further data set has as its system 786-0. The experiment in a line: Antiproliferative activity against human 786-0 cells assessed as inhibition of cell growth incubated for 48 hrs by MTT assay. In kind it is functional, cell-based. The note with it: 786-0, 48 h.
In data set [5] the test system is HepG2. The experiment in a line: Antiproliferative activity against human HepG2 cells assessed as inhibition of cell growth incubated for 48 hrs by MTT assay. The note with it: HepG2, 48 h. It is filed as functional, cell-based.
Another data set concerns HEK-293T. The experiment in a line: Antiproliferative activity against HEK293T cells assessed as inhibition of cell growth incubated for 48 hrs by MTT assay. It is filed as functional, cell-based. The note with it: Homo sapiens.
Data set [6] in a line: Selectivity index, ratio of IC50 for antiproliferative activity against HEK293T cells to IC50 for antiproliferative activity against human HepG2 cells. It is filed as toxicity, cell-based. The note with it: HEK293T cells versus HepG2 cells, read-out: Ratio IC50.
For another data set, the system named is SK-BR-3. The experiment in a line: Antiproliferative activity against human SK-BR-3 cells assessed as inhibition of cell growth incubated for 48 hrs by MTT assay. In kind it is functional, cell-based. The note with it: SK-BR-3, 48 h.
The subject of a further data set is HeLa. The data set is described as follows: Antiproliferative activity against human HeLa cells assessed as inhibition of cell growth incubated for 72 hrs by MTT assay. It is filed as functional, cell-based.

Regarding `CCCCCCCCCCCC[C@@H](O)C[C@H]1O[C@@H]2O[C@@]3(C)CC[C@H]4[C@H](C)CC[C@@H]([C@H]1C)[C@@]24OO3`, the IC50 with HepG2 [1] came out at 4400 nM.
As to `C[C@@H]1CC[C@H]2[C@@H](C)C(OCCOc3ccc(/C=C/S(=O)(=O)Nc4ccc(OC(F)(F)F)cc4)cc3)O[C@@H]3O[C@@]4(C)CC[C@@H]1[C@]32OO4` (stereo partly drawn), the IC50 with NCI-H460, with U-87 MG, with HL-60, in the data set with HT-29, in the data set with A549 and with MDA-MB-231 was 50 nM each time. Further, the IC50 at 72 h in data set [2] is 50 nM.
As to `CCCCCCCCCCCCCCNC(=O)C[C@H]1O[C@@H]2O[C@@]3(C)CC[C@H]4[C@H](C)CC[C@@H]([C@H]1C)[C@@]24OO3`, in [3], the IC50 is 460 nM.
With `C[C@H]1[C@H](OC(=O)CCC(=O)NCCc2ccc(OC(=O)CCC(=O)O[C@@H]3O[C@@H]4O[C@@]5(C)CC[C@H]6[C@H](C)CC[C@@H]([C@H]3C)[C@@]46OO5)cc2)O[C@@H]2O[C@@]3(C)CC[C@H]4[C@H](C)CC[C@@H]1[C@@]24OO3`, the IC50 in the data set with RPMI-7951 is 2450 nM.
In the case of `C[C@@H]1CC[C@H]2[C@@H](C)C(=O)O[C@@H]3O[C@@]4(C)CC[C@@H]1[C@]32OO4` [ARTEMISININ], the IC50 with HepG2 [1] came out at 97000 nM.
The same measure, in the same setting: for `CCCCCCCCCCCCNC(=O)C[C@H]1O[C@@H]2O[C@@]3(C)CC[C@H]4[C@H](C)CC[C@@H]([C@H]1C)[C@@]24OO3` the value was 1200 nM.
For `CCCCCCCCCCCC[C@H](O)C[C@H]1O[C@@H]2O[C@@]3(C)CC[C@H]4[C@H](C)CC[C@@H]([C@H]1C)[C@@]24OO3`, the IC50 in the data set on HepG2 [1] was determined as 2800 nM.
Turning to `C[C@@H]1CC[C@H]2[C@@H](C)C(OCCNC(=O)c3ccc(COc4ccc(/C=C/S(=O)(=O)Nc5ccc(OC(F)(F)F)cc5)cc4)cc3)O[C@@H]3O[C@@]4(C)CC[C@@H]1[C@]32OO4` (stereo partly drawn), the IC50 in the data set with NCI-H460, in the data set on U-87 MG, with HL-60, in the data set with HT-29, with A549 and in the data set with MDA-MB-231 was 90 nM each time. Moreover, the concentration for half-maximal inhibition (IC50) at 72 h in [2] came to 90 nM.
Take `C[C@H]1[C@H](N2CCN(P(=O)(OCc3cncs3)N(CCCCl)CCCCl)CC2)O[C@@H]2O[C@@]3(C)CC[C@H]4[C@H](C)CC[C@@H]1[C@@]24OO3` (stereo partly drawn): the IC50 in the data set with SK-OV-3, in the data set on Calu-1, in the data set on 786-0, in the data set with HepG2 [5], in the data set with HEK-293T and in the data set on SK-BR-3 was 12500 nM in each case. In the data set on HepG2 [4], the “Ratio IC50” value is on record as 7.4. Further, in [6], the selectivity ratio was determined as 16.
`COc1ccc(OC)c(/C=C/C(=O)c2ccc(OCC(=O)N[C@H]3O[C@@H]4O[C@@]5(C)CC[C@H]6[C@H](C)CC[C@@H]([C@H]3C)[C@@]46OO5)cc2)c1`: the IC50 in the data set with NCI-H460, with HeLa, in the data set with HT-29 and with MDA-MB-231 was 120 nM in each case.
Regarding `CCCCCCCCCCCCC(=O)C[C@H]1O[C@@H]2O[C@@]3(C)CC[C@H]4[C@H](C)CC[C@@H]([C@H]1C)[C@@]24OO3`, the IC50 in the data set on HepG2 [1] turned out to be 1400 nM.

As usually defined, the IC50 is the midpoint of a concentration-inhibition curve.
